From PubChem BioAssay AID248 (DTP/NCI, 2004)
Where “and” joins values, the source holds several entries; their conditions need not be identical. Equal entries are not always repeated. Inconclusive results and toxic doses are left out. Rule as the data show it: active = T/C of 150% or more; inactive = T/C below 125%.

System: L1210 leukemia ip in BDF1 mice, survival T/C
Assay: NCI In Vivo Anticancer Drug Screen. Data for tumor model L1210 Leukemia (intraperitoneal) in B6D2F1 (BDF1) mice
Conditions: endpoint: mean survival time, higher = longer survival
Procedure, shortened: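 Mice bearing the transplanted tumor received compound or vehicle. Survival of the treated group was divided by that of the vehicle-treated control group to give the ratio.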

[1] = dose: 100.0 mg/kg/injection, schedule: Q04DX003 (ip), vehicle: Klucel (hydroxypropylcellulose) (HPC)
[2] = dose: 200.0 mg/kg/injection, schedule: Q04DX003 (ip), vehicle: Klucel (hydroxypropylcellulose) (HPC)
[3] = dose: 400.0 mg/kg/injection, schedule: Q04DX003 (ip), vehicle: Klucel (hydroxypropylcellulose) (HPC)
[4] = dose: 100.0 mg/kg/injection, schedule: Q04DX003 (ip), vehicle: saline with Tween-80
[5] = dose: 200.0 mg/kg/injection, schedule: Q04DX003 (ip), vehicle: saline with Tween-80
[6] = dose: 100.0 mg/kg/injection, schedule: Q04DX002 (ip), vehicle: Klucel (hydroxypropylcellulose) (HPC)
[7] = dose: 200.0 mg/kg/injection, schedule: Q04DX002 (ip), vehicle: Klucel (hydroxypropylcellulose) (HPC)
[8] = dose: 400.0 mg/kg/injection, schedule: Q04DX002 (ip), vehicle: Klucel (hydroxypropylcellulose) (HPC)
[9] = dose: 100.0 mg/kg/injection, schedule: Q01DX001 (ip), vehicle: saline
[10] = dose: 200.0 mg/kg/injection, schedule: Q01DX001 (ip), vehicle: saline
[11] = dose: 400.0 mg/kg/injection, schedule: Q01DX001 (ip), vehicle: saline

Measured: T/C

COc1cc(N(CCCl)CCCl)c(OC)cc1C=Nc1ccccc1C(=O)O
inactive: dose: 2.6 mg/kg/injection, schedule: Q01DX009 (ip), vehicle: carboxymethylcellulose (CMC) 108 % of control | dose: 4.4 mg/kg/injection, schedule: Q01DX009 (ip), vehicle: carboxymethylcellulose (CMC) 116 % of control | dose: 5.5 mg/kg/injection, schedule: Q01DX001 (ip), vehicle: Klucel (hydroxypropylcellulose) (HPC) 109 % of control | dose: 6.6 mg/kg/injection, schedule: Q01DX009 (ip), vehicle: carboxymethylcellulose (CMC) 123 % of control | dose: 10.0 mg/kg/injection, schedule: Q01DX009 (ip), vehicle: carboxymethylcellulose (CMC) 123 % of control | dose: 11.0 mg/kg/injection, schedule: Q01DX001 (ip), vehicle: Klucel (hydroxypropylcellulose) (HPC) 111 % of control | dose: 19.0 mg/kg/injection, schedule: Q01DX001 (ip), vehicle: carboxymethylcellulose (CMC) 117 % of control | dose: 22.0 mg/kg/injection, schedule: Q01DX001 (ip), vehicle: Klucel (hydroxypropylcellulose) (HPC) 117 % of control | dose: 29.0 mg/kg/injection, schedule: Q01DX001 (ip), vehicle: carboxymethylcellulose (CMC) 118 % of control

COc1ccc(OC)c(NC(=O)Nc2cc(C)ccc2OC)c1
inactive: [1] 95 % of control | [2] 92 % of control | [3] 97 % of control

CCOc1cccc2c1OC(CN1CCC3(CC1)C(=O)NCN3c1ccccc1)CO2 (configuration not stated)
inactive: [1] 116 % of control | [2] 115 % of control | [3] 115 % of control

CCCCCCCCCCCCCCCC(=O)Oc1ccc(/C(CC)=C(/CC)c2ccc(OC(=O)CCCCCCCCCCCCCCC)cc2)cc1
inactive: [4] 89 % of control | dose: 200.0 mg/kg/injection, schedule: Q01DX009 (ip), vehicle: saline with Tween-80 91 % of control | [5] 100 % of control | dose: 400.0 mg/kg/injection, schedule: Q01DX009 (ip), vehicle: saline with Tween-80 91 % of control | dose: 400.0 mg/kg/injection, schedule: Q04DX003 (ip), vehicle: saline with Tween-80 89 % of control

COC(=O)/C=C\C=C(\CBr)C(=O)OC
inactive: dose: 6.25 mg/kg/injection, schedule: Q01DX009 (ip), vehicle: saline 104 % of control | dose: 6.25 mg/kg/injection, schedule: Q04DX003 (ip), vehicle: saline sonified 103 % of control | dose: 12.5 mg/kg/injection, schedule: Q01DX009 (ip), vehicle: saline 96 % of control | dose: 12.5 mg/kg/injection, schedule: Q04DX003 (ip), vehicle: saline sonified 97 % of control | dose: 25.0 mg/kg/injection, schedule: Q01DX009 (ip), vehicle: saline 110 % of control | dose: 25.0 mg/kg/injection, schedule: Q04DX003 (ip), vehicle: saline sonified 95 % of control

CC(=O)Nc1cccc(OCc2ccc([N+](=O)[O-])cc2)c1
inactive: dose: 50.0 mg/kg/injection, schedule: Q01DX009 (ip), vehicle: Klucel (hydroxypropylcellulose) (HPC) 111 % of control | dose: 100.0 mg/kg/injection, schedule: Q01DX009 (ip), vehicle: Klucel (hydroxypropylcellulose) (HPC) 97 % of control | dose: 200.0 mg/kg/injection, schedule: Q01DX009 (ip), vehicle: Klucel (hydroxypropylcellulose) (HPC) 97 % of control

COC(=O)C1OCOC2C(CO)OCOC12 (configuration not stated)
inactive: dose: 100.0 mg/kg/injection, schedule: Q04DX002 (ip), vehicle: saline 91 % of control | [4] 91 % of control | dose: 200.0 mg/kg/injection, schedule: Q04DX002 (ip), vehicle: saline 117 % of control | [5] 86 % of control | dose: 400.0 mg/kg/injection, schedule: Q04DX002 (ip), vehicle: saline 106 % of control

O=C(Nc1ccc(N=C(Nc2ccccc2)c2ccccc2)cc1)c1ccc(C(=O)Nc2ccc(N=C(Nc3ccccc3)c3ccccc3)cc2)cc1
inactive: dose: 15.0 mg/kg/injection, schedule: Q01DX Z (ip), vehicle: carboxymethylcellulose (CMC) 93 % of control | dose: 30.0 mg/kg/injection, schedule: Q01DX Z (ip), vehicle: carboxymethylcellulose (CMC) 93 % of control | dose: 60.0 mg/kg/injection, schedule: Q01DX Z (ip), vehicle: carboxymethylcellulose (CMC) 97 % of control | dose: 120.0 mg/kg/injection, schedule: Q01DX Z (ip), vehicle: carboxymethylcellulose (CMC) 95 % of control

Nc1nc(Cl)c(N=Nc2ccc(Cl)cc2)c(NC2CC(O)C(CO)C2)n1 (configuration not stated)
inactive: [6] 104 % of control | [7] 100 % of control | [8] 96 % of control

c1ccc(C(c2ccccc2)c2ccccn2)cc1
inactive: dose: 50.0 mg/kg/injection, schedule: Q04DX002 (ip), vehicle: other 95 % of control | [6] 98 % of control | dose: 100.0 mg/kg/injection, schedule: Q04DX002 (ip), vehicle: other 95 % of control | dose: 100.0 mg/kg/injection, schedule: Q04DX003 (ip), vehicle: other 103 % of control | [7] 102 % of control | dose: 200.0 mg/kg/injection, schedule: Q04DX002 (ip), vehicle: other 95 % of control | dose: 200.0 mg/kg/injection, schedule: Q04DX003 (ip), vehicle: other 117 % of control | [8] 106 % of control | dose: 400.0 mg/kg/injection, schedule: Q04DX003 (ip), vehicle: other 111 % of control

O=C1c2cc([N+](=O)[O-])ccc2-c2cc(Cl)c(NC(=O)C(Cl)Cl)cc21
inactive: dose: 50.0 mg/kg/injection, schedule: Q01DX001 (ip), vehicle: carboxymethylcellulose (CMC) 101 % of control | dose: 100.0 mg/kg/injection, schedule: Q01DX001 (ip), vehicle: carboxymethylcellulose (CMC) 104 % of control | dose: 200.0 mg/kg/injection, schedule: Q01DX001 (ip), vehicle: carboxymethylcellulose (CMC) 101 % of control | dose: 400.0 mg/kg/injection, schedule: Q01DX001 (ip), vehicle: carboxymethylcellulose (CMC) 104 % of control

COc1ccc2c(c1)CCN(C1=C(C)C(=O)CC1)C2CC(=O)O (configuration not stated)
inactive: [9] 104 % of control | [10] 101 % of control | [11] 90 % of control

O=C(CCCCCCCCC(=O)N/N=C/c1ccc(Cl)c(Cl)c1)N/N=C/c1ccc(Cl)c(Cl)c1
inactive: dose: 50.0 mg/kg/injection, schedule: Q01DX009 (ip), vehicle: saline with Tween-80 91 % of control | dose: 100.0 mg/kg/injection, schedule: Q01DX009 (ip), vehicle: saline with Tween-80 93 % of control | [4] 89 % of control | [5] 89 % of control

c1cc(CCc2ccncc2)ccn1
inactive: dose: 25.0 mg/kg/injection, schedule: Q04DX003 (ip), vehicle: saline 99 % of control | dose: 50.0 mg/kg/injection, schedule: Q04DX003 (ip), vehicle: saline 99 % of control | dose: 100.0 mg/kg/injection, schedule: Q04DX003 (ip), vehicle: saline 109 % of control and 89 % of control

CC(=O)Oc1ccc(CCN(C)C2CC3CCC2(C)C3(C)C)cc1OC(C)=O (configuration not stated)
inactive: [9] 110 % of control | [10] 93 % of control | [11] 100 % of control

O=C(Nc1ccc(Cl)cc1)Oc1ccc(Cl)cc1Cc1ccccc1
inactive: dose: 100.0 mg/kg/injection, schedule: Q04DX002 (ip), vehicle: saline with Tween-80 93 % of control | dose: 200.0 mg/kg/injection, schedule: Q04DX002 (ip), vehicle: saline with Tween-80 118 % of control | dose: 400.0 mg/kg/injection, schedule: Q04DX002 (ip), vehicle: saline with Tween-80 89 % of control

ClC1=C(Cl)C(Cl)=C(Cl)C1=Cc1ccccc1
inactive: dose: 3.13 mg/kg/injection, schedule: Q01DX009 (ip), vehicle: saline with Tween-80 113 % of control | dose: 6.25 mg/kg/injection, schedule: Q01DX009 (ip), vehicle: saline with Tween-80 107 % of control | dose: 25.0 mg/kg/injection, schedule: Q04DX002 (ip), vehicle: Klucel (hydroxypropylcellulose) (HPC) 100 % of control | dose: 50.0 mg/kg/injection, schedule: Q04DX002 (ip), vehicle: Klucel (hydroxypropylcellulose) (HPC) 90 % of control

CC(C)=CCN(CC=C(C)C)CCC(CC=C(C)C)(C(N)=O)c1cccc2ccccc12 (configuration not stated)
inactive: dose: 6.25 mg/kg/injection, schedule: Q01DX009 (ip), vehicle: Klucel (hydroxypropylcellulose) (HPC) 89 % of control | dose: 12.5 mg/kg/injection, schedule: Q01DX009 (ip), vehicle: Klucel (hydroxypropylcellulose) (HPC) 101 % of control | dose: 25.0 mg/kg/injection, schedule: Q01DX009 (ip), vehicle: Klucel (hydroxypropylcellulose) (HPC) 89 % of control
